In patent US5686458A, “Quinazoline deriviates for treating peptic ulcer” (Yuhan Corporation, priority 1992, dated 1997):

Columns and labels:
[1] = system: gastric secretion stimulated by pentagastrin; test: Inhibition of gastric secretion stimulated by pentagastrin (Experiment 3-2); assay type: in vivo, Sprague-Dawley male rats; settings: intravenous
[2] = biological target: T1, H^+ /K^+ ATPase (proton pump), gastric vesicles (Sus scrofa, UniProt P19156); test: Determination of H+/K+ ATPase activity, Lineweaver-Burk kinetics versus K+ (Experiment 4-2); assay type: biochemical, pig
T1 construct: Gastric vesicles were prepared from pig stomach; from tissue; host or cells: pig stomach, lyophilized gastric vesicles
T1 sequence (P19156 2-1034 limits assumed): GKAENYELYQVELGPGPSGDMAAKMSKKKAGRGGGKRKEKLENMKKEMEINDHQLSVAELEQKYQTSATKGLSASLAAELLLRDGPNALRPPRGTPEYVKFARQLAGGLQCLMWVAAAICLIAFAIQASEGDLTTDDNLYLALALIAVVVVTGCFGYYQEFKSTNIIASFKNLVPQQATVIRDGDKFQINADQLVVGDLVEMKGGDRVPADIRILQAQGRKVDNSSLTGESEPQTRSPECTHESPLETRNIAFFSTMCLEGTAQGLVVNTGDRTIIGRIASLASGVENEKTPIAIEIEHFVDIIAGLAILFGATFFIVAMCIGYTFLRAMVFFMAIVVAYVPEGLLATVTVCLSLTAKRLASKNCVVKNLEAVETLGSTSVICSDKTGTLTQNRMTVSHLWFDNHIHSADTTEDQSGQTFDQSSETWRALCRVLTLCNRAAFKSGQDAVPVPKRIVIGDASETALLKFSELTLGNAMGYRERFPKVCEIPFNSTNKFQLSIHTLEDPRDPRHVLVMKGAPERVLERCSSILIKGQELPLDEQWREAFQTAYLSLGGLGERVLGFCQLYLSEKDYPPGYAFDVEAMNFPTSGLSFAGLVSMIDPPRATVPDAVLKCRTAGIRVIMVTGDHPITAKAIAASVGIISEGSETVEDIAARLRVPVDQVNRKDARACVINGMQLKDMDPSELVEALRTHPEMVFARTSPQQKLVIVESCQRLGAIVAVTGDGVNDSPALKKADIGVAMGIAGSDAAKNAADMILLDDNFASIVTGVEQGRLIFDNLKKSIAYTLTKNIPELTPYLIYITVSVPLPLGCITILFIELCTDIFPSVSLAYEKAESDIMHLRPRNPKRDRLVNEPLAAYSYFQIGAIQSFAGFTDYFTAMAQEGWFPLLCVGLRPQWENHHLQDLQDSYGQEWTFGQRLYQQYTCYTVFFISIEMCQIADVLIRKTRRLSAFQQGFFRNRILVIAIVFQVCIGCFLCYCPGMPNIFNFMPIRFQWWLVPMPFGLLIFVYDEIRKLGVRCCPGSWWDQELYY
T1 sequence (P18434 whole entry partner): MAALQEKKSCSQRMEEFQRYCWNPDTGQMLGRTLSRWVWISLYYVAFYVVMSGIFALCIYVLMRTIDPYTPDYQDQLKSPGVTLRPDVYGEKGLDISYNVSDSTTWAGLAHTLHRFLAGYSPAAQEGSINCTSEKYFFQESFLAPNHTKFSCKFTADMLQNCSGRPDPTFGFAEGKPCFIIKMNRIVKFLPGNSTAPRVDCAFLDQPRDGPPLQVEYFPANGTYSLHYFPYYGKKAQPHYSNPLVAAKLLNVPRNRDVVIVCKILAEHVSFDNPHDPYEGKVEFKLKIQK
Protocol: Gastric vesicles were prepared from pig stomach by the method described in Saccomani G., et al., J. Biol. Chem. 250, 4802-4809 (1975). The vesicles were lyophilized and kept at -70° C. The protein content was determined by the method of Lowry et al., using bovine serum albumin as standard[see Lowry, O. H., Rosebrough, N. J. and Randall, R. J., J. Biol. Chem. 193, 265-275 (1951)].
Test tubes were divided into 4 groups, each having 3 test tubes. As a control group, group 1 was added with the 10 μl of DMSO. Groups 2, 3 and 4 were administered with the compound prepared in example 34 whose final concentration are 0.17 μM, 0.33 μM and 0.67 μM, respectively. Each group was further divided into 3 small groups, in which enzymes were activated by ATP; ATP and Mg^++; and ATP, Mg^++ and K^+, respectively.
To all of the test tubes, were added 100 μl of lyophilized vesicles prepared at the concentration of 25 μg protein/ml and then 90 μl of 5 mM Pipes/Tris buffer pH 7.0. The compound prepared in Example 34 was added to each Group until the final concentration thereof became 0.17, 0.33 or 0.67 μM, respectively, They were preincubated for 15 minutes.
50 μl of ATP(3 mM) was added to each of the four Groups and the 50 μl of MgCl2 (2 mM) was added only to the 2nd and 3rd small groups of all Groups. Further, to the 3rd small groups of all Groups, were added 50 μl of KCl solution of various concentrations(from 0.1 mM to 30 mM) and then 150μl of Pipes/Tris buffer of pH 7.0. To the rest small groups, Pipes/Tris buffer of pH 7.0 was added until the volume became the same as that of the 3rd small group.
The test tube's were incubated at 37° C. for 30 minutes and then the reaction was terminated by adding 25% cold trichloroacetic acid solution. They were centrifuged by means of a microcentrifuge and the supernatant was taken up for the measurement of the released inorganic phosphate content by an automatic analyzer(CIBA CORNING, Express 550).
In accordance with the same procedures as above, except that 15 and 30 μm of omeprazole and 0.75, 1.5 and 3.0 μm of SK&F96067 were used as comparative substances, released inorganic phosphate content was measured.
The released inorganic phosphate contents of the three small groups were considered as the activity of H^+ /K^+ ATPase at each of the concentrations employed. The specific activity of H^+ /K^+ ATPase was calculated from the following equation:
Specific activity=(A-C)-(B-C) . . . (V)
A is the activity of enzyme activated by ATP, Mg^++ and , K^+ ;
B is the activity of enzyme activated by ATP and M^++ and
C is the activity of enzyme activated by ATP.
The specific activity, thus calculated, of Groups 1, 2, 3 and 4 which employed DMSO and the compound of Example 34 at 3 different concentrations were then plotted with respect to the concentration of KCl in FIG. 1 according to the method of Lineweaver-Burk, wherein .box-solid., .quadrature. and .largecircle. represent the respective concentrations of the compound of Example 34 of 0.67 μM, 0.33 μM and 0.17 μM; and .oval-solid. represents concentration of the DMSO compound. FIG. 2 depicts the Lineweaver-Burk plot of the specific activities obtained from SK&F96067, wherein .box-solid., .quadrature. and .largecircle. represent its respective concentrations of 3.0 μM, 1.5 μM, 0.75 μM; and .oval-solid. represents concentration of the DMSO compound. FIG. 3 illustrates the Lineweaver-Burk plot of the specific activities obtained from omeprazole, wherein .oval-solid. and .quadrature. represent its concentrations of 15 μM and 30 μM; and .largecircle. represents the concentration of DMSO.

[3] = system: gastric secretion stimulated by histamine; test: Anti-secretory effects when gastric secretion is stimulated by histamine (Experiment 3-1); assay type: in vivo, Sprague-Dawley male rats; settings: intravenous
Protocol: In accordance with the method [see Ghosh and Shild, et al., British Journal of pharmacology 13:54-61 (1958)], anti-secretory effects of the test substances were studied in this Experiment. Sprague-Dawley male rats having a body weight of 200±20 g were divided into 3 groups, Group 1 to be administered with the compound of Example 34, Group 2 to be administered with SK&F96067[see Keeling, D. […] The rats of each Group, deprived of food for 24 hours before the experiment with free access to water, were anesthetized by intraperitoneally administering of 1.5 g/kg of 20% aqueous urethane solution and positioned on the test plate which was heated and maintained at 37° C. The anesthetized rats were cannulated at the right jugular vein for the administration of the test compounds and the left jugular vein for the administration of stimulating substances. After an abdominal incision, tubes were inserted into the esophagus and duodenum, each of which was connected with saline in a thermostat and a fraction collector. […] To the left jugular vein, histamine was administered as a gastric secretion stimulator. […] The gastric secretion inhibition (%) of the test compounds was calculated from the following equation: The gastric secretion inhibition (%) of the test compounds =(A-C)/(A-B)×100 . . . (IV) in which […]

[4] = biological target: T2, H^+ /K^+ ATPase, gastric vesicles (Sus scrofa, UniProt P19156); test: Reversibility of inhibition, Dilution and Washout method (Experiment 4-3); assay type: biochemical, pig
T2 construct: Gastric vesicles were prepared from pig stomach; from tissue; host or cells: pig stomach, lyophilized gastric vesicles
T2 sequence (P19156 2-1034 limits assumed): as the sequence (P19156 2-1034 limits assumed) above
T2 sequence (P18434 whole entry partner): as the sequence (P18434 whole entry partner) above
Protocol: The vesicles were lyophilized and kept at -70° C.
To all […] groups, was added 100 μl of lyophilized vesicles prepared in Experiment 4-1 at the concentration of 100 μg protein 1 ml. Then, 5 mM Pipes/Tris buffer(pH 6.4 ) was added to the three groups until the volume of test tubes became 150 μl. After the preincubation for 15 minutes, H^+ /K^+ ATPase activity was measured in accordance with the same procedures as in Experiment 4-2. The concentrations of the test substances as indicated above are the final concentrations.
After the completion of preincubation, each group was diluted 50 times with 5 mM Pipes/Tris buffer(pH 6.4), and then centrifuged for 60 minutes by means of Beckman ultracentrifuge(Model L8-80). The supernatant was discarded and the pellet was suspended with 5 mM Pipes/Tris buffer pH 6.4 until the volume became the same as the preincubation volume.

## CCCC(=O)c1cnc2c(OC)cccc2c1Nc1ccccc1C [SK&F96067]
[1]; 1.0 mg/kg
  The gastric secretion inhibition: 32.6%
[1]; 3.0 mg/kg
  The gastric secretion inhibition: 64.0%
[1]; 5.0 mg/kg
  The gastric secretion inhibition: 77.3%
[1]; Rattus norvegicus
  ED50: 1.85 mg/kg
[2]; Lineweaver-Burk plot, KCl 0.1 to 30 mM
  Competitive inhibition with K+ at the K+ binding site of proton pump: inhibited competitively with K^+
[2]; Lineweaver-Burk, versus K+, pH 7.0
  Ki: 700 nM
[3]; 0.5 mg/kg
  The gastric secretion inhibition (%): 29.8%
[3]; 1.0 mg/kg
  The gastric secretion inhibition (%): 57.1%
[3]; 3.0 mg/kg
  The gastric secretion inhibition (%): 75.9%
[3]; Rattus norvegicus, read-out: ED50, gastric secretion inhibition
  ED50: 0.96 mg/kg
[4]; conclusion from Table 4
  Reversibility of the inhibition of the enzyme activity: reversible
[4]; pH 6.4, Example 34 at 6 μM, omeprazole and SK&F96067 at 60 μM
  Inhibition of H+/K+ ATPase activity before Dilution and Washout: 80%
